For experiment [1], the target named is T1, Mina53(A26-V465) (Homo sapiens, UniProt Q8IUF8, A386T).
T1 construct: A N-terminal truncation of Mina53 A26-V465 cloned into pNIC28-Bsa4 was supplied by the Structural Genomics Consortium Oxford; His-tag (polyhistidine, TEV-cleavable, from pNIC28-Bsa4) (N, cleaved yes); made in house; host or cells: E. coli BL21(DE3)
Description: [14C] labelled 2-OG decarboxylation assay (uncoupled 2-OG turnover, 14CO2 release). Type of experiment: biochemical. The settings on record: for inhibition of uncoupled 2-OG turnover by small molecules (in words): final concentration of 1 mM; for 2OG turnover: truncated Mina53 A26-V465 with Fe(II) and ascorbate, 16 nm 2-OG initially present, 37° C., 20 minutes. Here is the method: Once purified full-length His-Mina53 had been obtained it was tested for 2-OG oxygenase activity. A standard assay for this family of enzymes involves the use of [^14C] labelled 2-OG co-substrate. Upon reaction, the ^14C label is released as 14CO2 gas (old FIG. 2).
The ^14CO2 gas is then trapped using a strong base and quantified by liquid scintillation. The level of uncoupled turnover of 2-OG oxygenases can be increased by the use of a reducing agent, e.g. ascorbate. Many other assays for 2-OG oxygenases are well known, e.g. those based on oxygen consumption, succinate production or oxidation of the “prime substrate” (McNeill et al (2005) Anal. Biochem. 336, 125-31; Sabourin & Bieber (1982) J. Biol. Chem. 257, 7460-7; and Cunliffe et al. (1986) Biochem. J. 240, 617-9).
As noted above, many of the enzymes in the family catalyse the decarboxylation of 2-OG in the absence of a suitable prime substrate, albeit at a reduced rate. This activity is sometimes termed as uncoupled turnover. The protocol used for the 2-OG assay decarboxylation is based on the method used to measure [^14CO2] release by α-ketoisocaproate oxygenase (Sabourin & Bieber (1982) J. Biol. Chem. 257, 7460-7). Standard assay conditions consisted of a total volume of 100 μl, 50 mM Tris-HCl pH 7.5, 4 mM ascorbate, 160 μM 2OG (5% 1-[^14C]), 80 μM FeSO4.6H2O, 0.48 mg·ml^−1 catalase, 10 μM Mina53. Four stocks were made: (a) Mina53 (b) Fe(II) (c) ascorbate and, (d) all other reagents. Assays were started by mixing components (a) to (d). A tube containing 200 μl hyamine hydroxide was added and the vial sealed. The assays were incubated at 37° C. for 20 minutes then quenched with methanol (200 μl). Reaction tubes were then left on ice for 30 mins to collect [^14CO2] gas, before the hyamine hydroxide was removed and treated with scintillant solution for counting (Beckman, LS6500). Assays were performed in triplicate unless otherwise stated. When potential small molecule inhibitors were added, they were mixed to stock (d) to a final concentration of 1 mM in Tris 50 mM, pH 7.9 buffer. To investigate inhibition of Mina53 by metals other than Fe(II), NiCl2 and ZnCl2 were added separately to the assay mixture to a final concentration of 80 μM.
Using this [^14C] labelled 2-OG assay (16 nm of 2-OG was initially present in the assay mixture), the level of uncoupled turnover for Mina53 was measured under standard catalytic conditions (16 nm of 2-OG was initially present in the assay mixture), in the absence of Fe(II), in the absence of ascorbate and in the presence on N-oxalylglycine (NOG) a ubiquitous inhibitor for the 2-OG dependent non-haem Fe(II) oxygenases^16.

Experiment [2] has as its target T1, Mina53(A26-V465). The description is as above. Type of experiment: biochemical. The settings on record: His-Mina53, absence of prime substrate.
[3] abbreviates: final assay concentration of 80 μM.

T1 sequence (Q8IUF8 26-465 A386T): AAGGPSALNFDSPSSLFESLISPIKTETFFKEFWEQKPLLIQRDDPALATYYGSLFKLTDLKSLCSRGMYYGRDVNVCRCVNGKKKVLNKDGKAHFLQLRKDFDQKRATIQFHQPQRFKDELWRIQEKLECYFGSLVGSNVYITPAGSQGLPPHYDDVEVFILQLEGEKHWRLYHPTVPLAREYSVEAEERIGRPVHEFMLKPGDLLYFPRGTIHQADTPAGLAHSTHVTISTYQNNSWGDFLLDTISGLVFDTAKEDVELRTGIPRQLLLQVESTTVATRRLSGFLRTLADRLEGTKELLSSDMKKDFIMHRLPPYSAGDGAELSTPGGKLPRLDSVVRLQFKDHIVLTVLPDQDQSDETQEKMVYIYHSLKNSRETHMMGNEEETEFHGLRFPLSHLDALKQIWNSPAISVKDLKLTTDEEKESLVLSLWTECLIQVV

On to `O=C(O)CNC(=O)c1nc(Cl)c2ccccc2c1O` [BB231], for which the “inhibition of uncoupled 2-OG turnover by small molecules (in words)” value (shortened to “inhibition of uncoupled 2-OG turnover”) on Mina53(A26-V465) [1] is “did not significantly reduce it”. Further, the 2OG turnover on Mina53(A26-V465) [1] (small molecule added at 1 mM) was 3.18 ± 0.03 nm.
As for `O=C(O)CNC(=O)C(=O)O` [NOG, N-oxalylglycine], the “decarboxylation of 2-OG by His-Mina53 in the presence of inhibitor (in words)” value on Mina53(A26-V465) [2] was “inhibited”. For the same compound, the “inhibition of uncoupled 2-OG turnover” value at Mina53(A26-V465) [1] is on record as “inhibit uncoupled 2-OG turnover”. The 2OG turnover on Mina53(A26-V465) [1] (small molecule added at 1 mM) is reported as 0.47 ± 0.12 nm.
Regarding `O=C(O)C(=O)NC(Cc1ccccc1)C(=O)O` [NOFD, N-oxalyl D-phenylalaninie], on Mina53(A26-V465) [1], the “inhibition of uncoupled 2-OG turnover” value is on record as “did not significantly reduce it”. Besides, the 2OG turnover at Mina53(A26-V465) [1] (small molecule added at 1 mM) was found to be 3.86 ± 0.05 nm.
With fumarate, on Mina53(A26-V465) [1], the “inhibition of uncoupled 2-OG turnover” value is reported as “inhibit uncoupled 2-OG turnover”. The same compound gave a 2OG turnover at Mina53(A26-V465) [1] (small molecule added at 1 mM) of 0.58 ± 0.09 nm.
Regarding `[Cl][Ni][Cl]` [NiCl2], the “inhibition of Mina53 mediated oxidation of 2OG by metals other than Fe(II) (in words)” value against Mina53(A26-V465) [1] (setting [3]) is listed as “inhibit 2OG turnover”. For the same compound, the 2OG turnover at Mina53(A26-V465) [1] (metal salt added at 80 μM) is listed as 2 ± 0.23 nm.
Regarding `CCC(=O)C1C(=O)CC(C(=O)O)CC1=O` (stereo not shown) [Prohexadione, prohexadione], on Mina53(A26-V465) [1], the “inhibition of uncoupled 2-OG turnover” value is recorded as “inhibit uncoupled 2-OG turnover”. The 2OG turnover on Mina53(A26-V465) [1] (small molecule added at 1 mM) is recorded as 0.17 ± 0.12 nm.
As to `[Cl-].[Cl-].[Zn+2]` [ZnCl2], at Mina53(A26-V465) [1] (setting [3]), the “inhibition of Mina53 mediated oxidation of 2OG by metals other than Fe(II) (in words)” value is recorded as “inhibit 2OG turnover” and the “relative inhibitory potency, Ni versus Zn (in words)” value is on record as “more potent inhibitor”. Moreover, the 2OG turnover on Mina53(A26-V465) [1] (metal salt added at 80 μM) was 0.93 ± 0.17 nm.
